# Measured values: patent US20140113898A1, “BISARYLSULFONE AND DIALKYLARYLSULFONE COMPOUNDS AS CALCIUM CHANNEL BLOCKERS” (Zalicus Pharmaceuticals Ltd., priority 2010, published 2014)
# Molecular target: T1, CaV2.2 (Homo sapiens, UniProt Q00975)
# T1 construct: expressed in transfected cells; host or cells: unnamed doxycycline-inducible cell line
# Experiment: High-throughput CaV2.2/Kir2.3 FLIPR fluorescent assay
# Assay type: cell-based
# Conditions: FLIPR data CaV2.2 (nM), Table 5; Fluo-4 FLIPR; closed or inactivated state not stated
# Protocol: Cells were plated in 384-well, clear-bottom, black-walled, poly-D-lysine coated plates (Becton Dickinson, Franklin Lake, N.J.) 2 days prior to use in the FLIPR assay. 100 μL of cells (1.4×10^6 cell/mL) containing doxycyline (Sigma-Aldrich, 1.5 μg/mL; to induce channel expression) were added to each well using a Multidrop (Thermo Scientific, Waltham, Mass.) and were maintained in 5% CO2 incubator at 37° C. On the morning of the assay, cells were transferred to a 5% CO2 incubator at 29° C.
# Cells were washed with a wash buffer containing (in mM): 118 NaCl, 18.4 HEPES, 11.7 D-glucose, 2 CaCl2, 0.5 MgSO4, 4.7 KCl, 1.2 KH2PO4, pH adjusted to 7.2 with NaOH. 4.4 μM of the fluorescent indicator dye, Fluo-4 (Invitrogen), prepared in pluronic acid (Sigma-Aldrich), was loaded into the wells and incubated for 45 minutes at 29° C. in 5% CO2. Cells were then rinsed with either a 2 mM KCl closed-state buffer (in mM: 138.5 NaCl, 10 HEPES, 10 D-glucose, 1 CaCl2, and 2 KCl, with the pH adjusted to 7.4 with NaOH) when performing the closed-state assay or 12.5 mM KCl inactivated-state buffer (in mM: 128 NaCl, 10 HEPES, 10 D-glucose, 1 CaCl2, and 12.5 mM KCl, with the pH adjusted to 7.4 with NaOH) when performing the inactivated-state assay.
# Calcium entry was evoked with an addition of 130 mM KCl stimulation buffer (in mM: 10.5 NaCl, 10 HEPES, 10 D-glucose, 1 CaCl2, and 130 KCl, with the pH adjusted to 7.4 with NaOH) for both the closed-state or inactivated-state assay. A change in the Fluo-4 fluorescence signal was assessed using FLIPR^TETRA™ instrument (Molecular Devices, Sunnyvale, Calif.) for 3 minutes following the elevation of extracellular KCl using an illumination wavelength of 470-495 nm with emissions recorded at 515-575 nm.
# Concentration-dependent response curves were obtained by comparing the fluorescence signal in the presence of compound and fitted with a logistic function (1) to obtain the concentration that inhibited 50% (IC50) of the RLU signal using OriginPro v.7.5 software (OriginLab, Northampton, Mass.).
# To assess the quality of the FLIPR assays the Z-factor (2) was used to quantify the suitability of the assay conditions using the following equation: […]
# Data are expressed as mean and standard deviation (SD).
# T1 sequence (Q00975 whole entry): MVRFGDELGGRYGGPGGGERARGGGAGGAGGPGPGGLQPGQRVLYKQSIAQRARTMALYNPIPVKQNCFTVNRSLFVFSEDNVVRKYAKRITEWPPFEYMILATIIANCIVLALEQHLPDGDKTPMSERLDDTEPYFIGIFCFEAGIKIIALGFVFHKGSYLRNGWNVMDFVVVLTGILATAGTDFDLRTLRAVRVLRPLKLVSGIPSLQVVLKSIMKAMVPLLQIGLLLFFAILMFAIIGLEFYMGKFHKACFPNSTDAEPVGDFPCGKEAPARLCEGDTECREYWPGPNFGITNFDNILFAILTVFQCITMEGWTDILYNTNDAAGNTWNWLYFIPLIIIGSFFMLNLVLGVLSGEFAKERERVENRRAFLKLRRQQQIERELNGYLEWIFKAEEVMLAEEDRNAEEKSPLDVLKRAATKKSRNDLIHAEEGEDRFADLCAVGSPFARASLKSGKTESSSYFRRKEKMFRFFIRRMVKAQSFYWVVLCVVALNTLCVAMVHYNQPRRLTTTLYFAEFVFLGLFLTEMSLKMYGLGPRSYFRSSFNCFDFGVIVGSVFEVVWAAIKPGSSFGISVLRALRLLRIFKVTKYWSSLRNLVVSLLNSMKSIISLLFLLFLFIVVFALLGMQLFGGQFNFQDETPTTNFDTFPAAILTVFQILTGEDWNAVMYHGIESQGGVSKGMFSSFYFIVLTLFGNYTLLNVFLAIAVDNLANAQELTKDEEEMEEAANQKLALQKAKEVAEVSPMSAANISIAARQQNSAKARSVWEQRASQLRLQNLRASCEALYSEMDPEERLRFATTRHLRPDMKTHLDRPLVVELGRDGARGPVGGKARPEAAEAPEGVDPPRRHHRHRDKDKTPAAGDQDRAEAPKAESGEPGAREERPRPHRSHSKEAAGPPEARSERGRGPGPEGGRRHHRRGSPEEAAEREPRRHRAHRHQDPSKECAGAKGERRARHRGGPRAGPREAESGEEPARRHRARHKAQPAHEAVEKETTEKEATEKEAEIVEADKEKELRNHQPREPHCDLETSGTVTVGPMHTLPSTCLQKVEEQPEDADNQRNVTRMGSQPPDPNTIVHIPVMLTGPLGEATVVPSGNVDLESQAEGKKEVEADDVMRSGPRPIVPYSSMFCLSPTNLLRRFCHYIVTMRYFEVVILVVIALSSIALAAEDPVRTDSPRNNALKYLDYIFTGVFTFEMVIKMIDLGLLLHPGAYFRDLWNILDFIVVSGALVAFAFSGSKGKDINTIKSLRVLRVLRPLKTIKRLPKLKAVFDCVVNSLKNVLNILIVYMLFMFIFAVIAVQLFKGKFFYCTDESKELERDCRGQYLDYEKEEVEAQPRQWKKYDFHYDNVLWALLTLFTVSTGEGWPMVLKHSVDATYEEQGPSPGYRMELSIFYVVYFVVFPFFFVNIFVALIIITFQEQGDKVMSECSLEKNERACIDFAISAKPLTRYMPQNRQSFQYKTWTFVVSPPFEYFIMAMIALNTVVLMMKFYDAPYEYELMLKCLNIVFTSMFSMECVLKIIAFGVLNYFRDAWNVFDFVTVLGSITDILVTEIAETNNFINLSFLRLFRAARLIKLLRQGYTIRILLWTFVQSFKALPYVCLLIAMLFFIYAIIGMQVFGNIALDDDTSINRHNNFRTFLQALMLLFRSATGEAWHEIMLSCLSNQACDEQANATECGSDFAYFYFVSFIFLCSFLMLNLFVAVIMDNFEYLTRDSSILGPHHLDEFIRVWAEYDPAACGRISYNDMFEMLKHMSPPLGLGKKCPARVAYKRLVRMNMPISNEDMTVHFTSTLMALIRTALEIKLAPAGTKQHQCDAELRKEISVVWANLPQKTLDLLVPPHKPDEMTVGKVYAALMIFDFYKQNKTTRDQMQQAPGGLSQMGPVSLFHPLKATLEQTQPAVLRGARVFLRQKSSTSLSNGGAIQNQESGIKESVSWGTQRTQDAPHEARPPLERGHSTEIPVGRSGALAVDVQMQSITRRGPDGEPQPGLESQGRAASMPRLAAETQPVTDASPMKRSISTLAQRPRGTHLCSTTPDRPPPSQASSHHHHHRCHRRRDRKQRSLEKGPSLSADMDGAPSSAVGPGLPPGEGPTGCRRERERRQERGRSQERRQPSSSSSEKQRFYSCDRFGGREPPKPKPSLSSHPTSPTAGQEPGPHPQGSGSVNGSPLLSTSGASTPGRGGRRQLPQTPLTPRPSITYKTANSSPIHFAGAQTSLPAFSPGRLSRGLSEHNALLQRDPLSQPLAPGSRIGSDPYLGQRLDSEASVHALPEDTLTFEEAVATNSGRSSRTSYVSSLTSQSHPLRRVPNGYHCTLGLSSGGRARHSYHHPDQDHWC
# T1 sequence (P54284 whole entry partner): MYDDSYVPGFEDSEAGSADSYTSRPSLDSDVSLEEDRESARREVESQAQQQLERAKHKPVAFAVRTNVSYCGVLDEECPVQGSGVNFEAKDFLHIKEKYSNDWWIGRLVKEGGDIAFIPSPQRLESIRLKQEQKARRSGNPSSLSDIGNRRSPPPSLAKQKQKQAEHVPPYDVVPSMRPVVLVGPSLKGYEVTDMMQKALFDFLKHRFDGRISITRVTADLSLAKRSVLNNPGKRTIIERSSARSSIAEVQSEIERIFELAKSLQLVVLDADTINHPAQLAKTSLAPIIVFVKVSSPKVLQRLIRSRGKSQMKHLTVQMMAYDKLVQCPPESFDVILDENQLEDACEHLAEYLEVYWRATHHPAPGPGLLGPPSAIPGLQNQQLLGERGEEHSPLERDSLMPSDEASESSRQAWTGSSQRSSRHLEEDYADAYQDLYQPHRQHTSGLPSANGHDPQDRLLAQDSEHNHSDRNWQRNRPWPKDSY
# T1 sequence (P54289 25-946 partner limits assumed): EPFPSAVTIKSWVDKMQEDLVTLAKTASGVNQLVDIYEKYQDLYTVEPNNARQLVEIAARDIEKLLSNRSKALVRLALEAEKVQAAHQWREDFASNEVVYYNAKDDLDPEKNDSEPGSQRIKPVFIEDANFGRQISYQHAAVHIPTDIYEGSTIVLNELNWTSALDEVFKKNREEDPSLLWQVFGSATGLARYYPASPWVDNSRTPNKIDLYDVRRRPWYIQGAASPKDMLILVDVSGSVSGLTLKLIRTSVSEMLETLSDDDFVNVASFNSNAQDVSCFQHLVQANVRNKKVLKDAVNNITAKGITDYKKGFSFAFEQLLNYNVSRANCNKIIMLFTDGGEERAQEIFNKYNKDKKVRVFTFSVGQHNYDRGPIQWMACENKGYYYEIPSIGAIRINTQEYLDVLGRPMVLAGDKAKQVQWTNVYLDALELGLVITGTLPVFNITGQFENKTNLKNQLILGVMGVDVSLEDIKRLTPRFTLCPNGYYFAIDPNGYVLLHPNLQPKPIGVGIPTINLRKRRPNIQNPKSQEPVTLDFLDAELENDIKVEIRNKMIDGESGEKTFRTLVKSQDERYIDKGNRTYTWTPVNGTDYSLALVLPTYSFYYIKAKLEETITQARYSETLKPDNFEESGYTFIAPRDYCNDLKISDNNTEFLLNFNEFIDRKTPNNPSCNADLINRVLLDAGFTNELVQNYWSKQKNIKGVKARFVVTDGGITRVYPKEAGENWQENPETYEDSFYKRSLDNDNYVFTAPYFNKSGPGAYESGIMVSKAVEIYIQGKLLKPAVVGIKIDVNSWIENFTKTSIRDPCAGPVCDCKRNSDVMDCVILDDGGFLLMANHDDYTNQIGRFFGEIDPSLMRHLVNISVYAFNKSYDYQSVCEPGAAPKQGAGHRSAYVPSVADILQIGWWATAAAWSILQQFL
# T1 sequence (P54289 947-1103 partner limits assumed): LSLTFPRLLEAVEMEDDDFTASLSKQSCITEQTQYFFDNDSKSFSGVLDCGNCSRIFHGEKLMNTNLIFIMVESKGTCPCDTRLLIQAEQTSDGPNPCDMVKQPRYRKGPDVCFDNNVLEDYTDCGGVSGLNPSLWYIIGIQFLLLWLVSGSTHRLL
row,SMILES,IC50
1,"CC(C)(C(=O)NCCC(F)(F)F)S(=O)(=O)c1cccc(C(F)(F)F)c1 [Compound 125, 2-methyl-2-((3-(trifluoromethyl)phenyl)sulfonyl)-N-(3,3,3-trifluoropropyl)propanamide]",10000 nM
2,"CC(C)C[C@H](CN)CC(=O)NCCC(C)(C)S(=O)(=O)c1cccc(C(F)(F)F)c1 [Compound 224, (S)-3-(aminomethyl)-5-methyl-N-(3-methyl-3-((3-(trifluoromethyl)phenyl)sulfonyl)butyl)hexanamide]",470 nM

# Same assay, conditions: Table 4; Fluo-4 FLIPR; closed or inactivated state not stated; read-out: FLIPR data CaV2.2
row,SMILES,IC50
1,CS(=O)(=O)c1nc(C(F)(F)F)ccc1C(=O)NCc1ccccc1S(=O)(=O)c1cccc(C(F)(F)F)c1 [Compound 40],7000 nM
2,"O=C(NCc1ccccc1S(=O)(=O)c1cccc(C(F)(F)F)c1)c1ccnc(C(F)(F)F)n1 [Compound 46, 2-(trifluoromethyl)-N-(2-((3-(trifluoromethyl)phenyl)sulfonyl)benzyl)pyrimidine-4-carboxamide]",1740 nM
3,"O=C(NCc1ccc(S(=O)(=O)c2cccc(C(F)(F)F)c2)cc1)C1CCCCN1 (stereo not drawn) [Compound 59, N-(4-((3-(trifluoromethyl)phenyl)sulfonyl)benzyl)piperidine-2-carboxamide]",1000 nM
4,"O=C(NCc1ccc(S(=O)(=O)c2cccc(C(F)(F)F)c2)cn1)c1ccnc(C(F)(F)F)c1 [Compound 102, 2-(trifluoromethyl)-N-((5-((3-(trifluoromethyl)phenyl)sulfonyl)pyridin-2-yl)methyl)isonicotinamide]",1410 nM
5,"O=C(CCC(F)(F)F)NCc1cc(S(=O)(=O)c2cccc(C(F)(F)F)c2)ccn1 [Compound 114, 4,4,4-trifluoro-N-((4-((3-(trifluoromethyl)phenyl)sulfonyl)pyridin-2-yl)methyl)butanamide]",3320 nM
6,"O=C(CCC(F)(F)F)NCc1ccc(S(=O)(=O)c2cccc(C(F)(F)F)c2)cn1 [Compound 105, 4,4,4-trifluoro-N-((5-((3-(trifluoromethyl)phenyl)sulfonyl)pyridin-2-yl)methyl)butanamide]",2510 nM
7,"O=C(NCc1ccc(S(=O)(=O)c2cccc(C(F)(F)F)c2)cn1)c1ccnn1CC(F)(F)F [Compound 100, 1-(2,2,2-trifluoroethyl)-N-((5-((3-(trifluoromethyl)phenyl)sulfonyl)pyridin-2-yl)methyl)-1H-pyrazole-5-carboxamide]",1320 nM
8,"CS(=O)(=O)c1nc(C(F)(F)F)ccc1C(=O)NCc1cc(S(=O)(=O)c2cccc(C(F)(F)F)c2)ccn1 [Compound 110, 2-(methylsulfonyl)-6-(trifluoromethyl)-N-((4-((3-(trifluoromethyl)phenyl)sulfonyl)pyridin-2-yl)methyl)nicotinamide]",2210 nM
9,"O=C(NCc1ccc(S(=O)(=O)c2cccc(C(F)(F)F)c2)cc1)[C@@H]1C[C@@H](O)CN1 [Compound 74, (2S,4R)-4-hydroxy-N-(4-((3-(trifluoromethyl)phenyl)sulfonyl)benzyl)pyrrolidine-2-carboxamide]",2360 nM
10,"O=C(NCc1cc(S(=O)(=O)c2cccc(C(F)(F)F)c2)ccn1)c1ccnn1CC(F)(F)F [Compound 112, 1-(2,2,2-trifluoroethyl)-N-((4-((3-(trifluoromethyl)phenyl)sulfonyl)pyridin-2-yl)methyl)-1H-pyrazole-5-carboxamide]",1030 nM
11,"CO[C@H]1CN[C@@H](C(=O)NCc2ccc(S(=O)(=O)c3cccc(C(F)(F)F)c3)cc2)C1 [Compound 82, (2R,4R)-4-methoxy-N-(4-((3-(trifluoromethyl)phenyl)sulfonyl)benzyl)pyrrolidine-2-carboxamide]",970 nM
12,"O=C(NCc1ccc(S(=O)(=O)c2cccc(C(F)(F)F)c2)cc1)C1CCCN1 (stereo in doubt) [Compound 77, (R)-N-(4-((3-(trifluoromethyl)phenyl)sulfonyl)benzyl)pyrrolidine-2-carboxamide]",690 nM

# Same assay, conditions: Table 5; Fluo-4 FLIPR; closed or inactivated state not stated; read-out: FLIPR data CaV2.2
row,SMILES,IC50
1,"CC(C)(CN1Cc2nc(C(F)(F)F)ccc2C1=O)S(=O)(=O)c1cccc(C(F)(F)F)c1 [Compound 182, 6-(2-methyl-2-((3-(trifluoromethyl)phenyl)sulfonyl)propyl)-2-(trifluoromethyl)-6,7-dihydro-5H-pyrrolo[3,4-b]pyridin-5-one]",10000 nM
2,"CC(C)S(=O)(=O)c1cccnc1C(=O)NCCC(C)(C)S(=O)(=O)c1cccc(C(F)(F)F)c1 [Compound 211, 3-(isopropylsulfonyl)-N-(3-methyl-3-((3-(trifluoromethyl)phenyl)sulfonyl)butyl)picolinamide]",1100 nM
3,"CC(C)(C)Oc1ccc(CNC(=O)C(C)(C)S(=O)(=O)c2cccc(C(F)(F)F)c2)cc1 [Compound 144, N-(4-(tert-butoxy)benzyl)-2-methyl-2-((3-(trifluoromethyl)phenyl)sulfonyl)propanamide]",360 nM
4,"CC(C)(CNC(=O)c1ccnc(C(F)(F)F)c1)S(=O)(=O)c1cccc(C(F)(F)F)c1 [Compound 179, N-(2-methyl-2-((3-(trifluoromethyl)phenyl)sulfonyl)propyl)-2-(trifluoromethyl)isonicotinamide]",1240 nM
5,"CC1(C(=O)NCCC(C)(C)S(=O)(=O)c2cccc(C(F)(F)F)c2)CCCCN1 (stereo not drawn) [Compound 222, 2-methyl-N-(3-methyl-3-((3-(trifluoromethyl)phenyl)sulfonyl)butyl)piperidine-2-carboxamide]",3770 nM
6,"CC(C)(CCNC(=O)[C@H]1CCCC[C@@H]1N)S(=O)(=O)c1cccc(C(F)(F)F)c1 [Compound 208, (1S,2S)-2-amino-N-(3-methyl-3-((3-(trifluoromethyl)phenyl)sulfonyl)butyl)cyclohexanecarboxamide]",1750 nM
7,"CC(C)(CCNC(=O)CC1CCNCC1)S(=O)(=O)c1cccc(C(F)(F)F)c1 [Compound 206, N-(3-methyl-3-((3-(trifluoromethyl)phenyl)sulfonyl)butyl)-2-(piperidin-4-yl)acetamide]",10000 nM
8,"Cc1nc(C(F)(F)F)ccc1C(=O)NCC(C)(C)S(=O)(=O)c1cccc(C(F)(F)F)c1 [Compound 172, 2-methyl-N-(2-methyl-2-((3-(trifluoromethyl)phenyl)sulfonyl)propyl)-6-(trifluoromethyl)nicotinamide]",2170 nM
9,"CC(C)(CCNC(=O)C1(N)CCC1)S(=O)(=O)c1cccc(C(F)(F)F)c1 [Compound 203, 1-amino-N-(3-methyl-3-((3-(trifluoromethyl)phenyl)sulfonyl)butyl)cyclobutanecarboxamide]",5850 nM
10,"CC(C)(CNC(=O)c1ccc(S(C)(=O)=O)cc1Cl)S(=O)(=O)c1cccc(C(F)(F)F)c1 [Compound 158, 2-chloro-N-(2-methyl-2-((3-(trifluoromethyl)phenyl)sulfonyl)propyl)-4-(methylsulfonyl)benzamide]",2920 nM
11,"CC(C)(CCNC(=O)CC1(N)CCCCC1)S(=O)(=O)c1cccc(C(F)(F)F)c1 [Compound 223, 2-(1-aminocyclohexyl)-N-(3-methyl-3-((3-(trifluoromethyl)phenyl)sulfonyl)butyl)acetamide]",360 nM
12,"CC(C)(CCNC(=O)[C@@H]1C[C@@H](O)CN1)S(=O)(=O)c1cccc(C(F)(F)F)c1 [Compound 217, (2S,4R)-4-hydroxy-N-(3-methyl-3-((3-(trifluoromethyl)phenyl)sulfonyl)butyl)pyrrolidine-2-carboxamide]",8170 nM
13,"CC(C)(CCNC(=O)[C@H]1CCCC[C@H]1N)S(=O)(=O)c1cccc(C(F)(F)F)c1 [Compound 209, (1S,2R)-2-amino-N-(3-methyl-3-((3-(trifluoromethyl)phenyl)sulfonyl)butyl)cyclohexanecarboxamide]",1680 nM
14,"CC(C)(CNC(=O)c1cnccc1C(F)(F)F)S(=O)(=O)c1cccc(C(F)(F)F)c1 [Compound 174, N-(2-methyl-2-((3-(trifluoromethyl)phenyl)sulfonyl)propyl)-4-(trifluoromethyl)nicotinamide]",4360 nM
15,"CC(C)(N)C(=O)NCCC(C)(C)S(=O)(=O)c1cccc(C(F)(F)F)c1 [Compound 201, 2-amino-2-methyl-N-(3-methyl-3-((3-(trifluoromethyl)phenyl)sulfonyl)butyl)propanamide]",10000 nM
16,"CC(C)(CCNC(=O)c1ccc(C(F)(F)F)cc1S(C)(=O)=O)S(=O)(=O)c1cc(F)cc(C(F)(F)F)c1 [Compound 213, N-(3-((3-fluoro-5-(trifluoromethyl)phenyl)sulfonyl)-3-methylbutyl)-2-(methylsulfonyl)-4-(trifluoromethyl)benzamide]",1120 nM
